Numbered stars: 1 amine (or outer) side, 2 acyl side, 3 side chain; on linkers, the order of the positions; unused ones are H or OH. Bridge positions count the residues as written; N and C are the ends. Square brackets hold non-standard residues; d marks the D form. Peptide text beside a SMILES is read from it. * marks the point of attachment. hPhe(3-Cl-4-CF3) = N[C@@H](CCc1ccc(C(F)(F)F)c(Cl)c1)C(=O)O; hPhe(4-CF3) = N[C@@H](CCc1ccc(C(F)(F)F)cc1)C(=O)O; NMePhe(4-Cl) = CN[C@@H](Cc1ccc(Cl)cc1)C(=O)O; NMePhe(4-Me) = CN[C@@H](Cc1ccc(C)cc1)C(=O)O; NMedβ3hAla = C[C@H](CC(=O)[*:2])N(C)[*:1]; NMePhe(2-F) = CN[C@@H](Cc1ccccc1F)C(=O)O; hNle(7,7-F2) = N[C@@H](CCCCC(F)F)C(=O)O; NMeGly(cPent) = CN[C@H](C(=O)O)C1CCCC1; NMe3Pal = CN[C@@H](Cc1cccnc1)C(=O)O; NMeCha = CN[C@@H](CC1CCCCC1)C(=O)O; NMeCba = CN[C@@H](CC1CCC1)C(=O)O; NMeChg = CN[C@H](C(=O)O)C1CCCCC1; NMeF = CN[C@@H](Cc1ccccc1)C(=O)O; NMeI = CC[C@H](C)[C@H](NC)C(=O)O; NMeD = CN[C@@H](CC(=O)O)C(=O)O; NMeL = CN[C@@H](CC(C)C)C(=O)O; NMeV = CN[C@H](C(=O)O)C(C)C; d(β3hA) = C[C@@H](N)CC(=O)O; NMeA = CN[C@@H](C)C(=O)O; NMeAib = CNC(C)(C)C(=O)O; Piperidide = C1CCN(*)CC1; Ac5c = NC1(C(=O)O)CCCC1; Aze = O=C(O)[C@@H]1CCN1; Sar = CNCC(=O)O

We go through ten compounds from US20240148821A1, “PHARMACEUTICAL USE OF CYCLIC PEPTIDE COMPOUND” (CHUGAI SEIYAKU KABUSHIKI KAISHA, priority 2021, published 2024).

This test deals with Human pancreatic cancer cell line AsPC-1 (G12D mutation Kras). Description: AsPC-1 cell growth inhibition (AsPC-1 CGI). Format: cell-based. The conditions noted are these: read-out: AsPC-1 cell growth inhibition, 50% growth inhibitory concentration (IC50 value); 96 hours, CellTiter-Glo, values classified in ranges. On the technique in general: In ATP-based viability assays light output follows the ATP content of the culture.
Method: Test compounds were serially dilated with dimethyl sulfoxide, and 200 nL was then dispensed to a U-bottom 96-well plate using Labcyte Echo. […] The cell suspension was dispensed to a. plate containing a test compound at 100 μL per well and incubated at 37° C. in a 5% carbon dioxide gas incubator. 96 hours later, 80 μL of CellTiter-Glo (Promega) was added to each well and fluorescence was measured.
For `CC[C@H](C)[C@@H]1NC(=O)[C@H](CC(C)C)N(C)C(=O)C[C@@H](C(=O)N(C)C)N(C)C(=O)[C@H](C2CCCC2)N(C)C(=O)C2(CCCC2)NC(=O)[C@H](Cc2ccccc2F)N(C)C(=O)[C@H](CCc2ccc(C(F)(F)F)c(Cl)c2)NC(=O)CN(C)C(=O)[C@H](CC2CCCCC2)N(C)C(=O)[C@@H]2CCN2C(=O)[C@H](C)N(C)C1=O` [Compound 43] ([NMeL]I[NMeA][Aze][NMeCha][Sar][hPhe(3-Cl-4-CF3)][NMePhe(2-F)][Ac5c][NMeGly(cPent)][NMeD]-NMe2; lactam N-11), the IC50 was greater than 500 nM.
The same measure for `CC[C@H](C)[C@@H]1NC(=O)[C@H](CC(C)C)N(C)C(=O)C[C@@H](C)N(C)C(=O)[C@H](CC(C)C)NC(=O)C(C)(C)N(C)C(=O)[C@H](CC(C)C)NC(=O)[C@H](CCc2ccc(C(F)(F)F)c(Cl)c2)NC(=O)CN(C)C(=O)[C@H](CC2CCCCC2)N(C)C(=O)[C@@H]2CCN2C(=O)CN(C)C1=O` [Compound 57] (cyclo([Aze][NMeCha][Sar][hPhe(3-Cl-4-CF3)]L[NMeAib]L[NMedβ3hAla][NMeL]I[Sar])): greater than 500 nM; for `CC[C@H](C)[C@@H]1NC(=O)[C@H](CC(C)C)N(C)C(=O)C[C@@H](C)NC(=O)[C@H](CC2CCC2)N(C)C(=O)C2(CCCC2)NC(=O)[C@@H]2CCCN2C(=O)[C@H](CCc2ccc(C(F)(F)F)c(Cl)c2)NC(=O)CN(C)C(=O)[C@H](CC2CCCCC2)N(C)C(=O)CN(C)C(=O)CN(C)C1=O` [Compound 59] (cyclo([Ac5c][NMeCba][d(β3hA)][NMeL]I[Sar][Sar][NMeCha][Sar][hPhe(3-Cl-4-CF3)]P)): greater than 500 nM; for `CC[C@H](C)[C@@H]1NC(=O)[C@H](CC(C)C)N(C)C(=O)C[C@@H](C(=O)N2CCCCC2)N(C)C(=O)[C@H](C2CCCCC2)N(C)C(=O)C2(CCCC2)NC(=O)[C@H](Cc2cccnc2)N(C)C(=O)[C@H](CCc2ccc(C(F)(F)F)c(Cl)c2)NC(=O)CN(C)C(=O)[C@H](CC2CCCCC2)N(C)C(=O)CN(C)C(=O)CN(C)C1=O` [Compound 63] ([NMeL]I[Sar][Sar][NMeCha][Sar][hPhe(3-Cl-4-CF3)][NMe3Pal][Ac5c][NMeChg][NMeD]-Piperidide; lactam N-11): greater than 500 nM.
Take `CC[C@H](C)[C@@H]1NC(=O)[C@H](CC(C)C)N(C)C(=O)C[C@@H](C(=O)N(C)C)N(C)C(=O)[C@H]([C@@H](C)CC)N(C)C(=O)C2(CCCC2)NC(=O)[C@@H](C)NC(=O)[C@H](CCc2ccc(C(F)(F)F)c(Cl)c2)NC(=O)CN(C)C(=O)[C@H](Cc2ccc(C)cc2)N(C)C(=O)[C@@H]2CCN2C(=O)[C@H](C)N(C)C1=O` [Compound 67] ([NMeL]I[NMeA][Aze][NMePhe(4-Me)][Sar][hPhe(3-Cl-4-CF3)][dA][Ac5c][NMeI][NMeD]-NMe2; lactam N-11): the IC50 is greater than 500 nM.
The same measure for `CC[C@H](C)[C@@H]1NC(=O)[C@H](C)N(C)C(=O)C[C@@H](C)NC(=O)[C@H](C(C)C)N(C)C(=O)[C@H](Cc2ccccc2)N(C)C(=O)[C@H](CC(C)C)N(C)C(=O)[C@H](CCc2ccc(C(F)(F)F)cc2)NC(=O)CN(C)C(=O)[C@H](Cc2ccc(Cl)cc2)N(C)C(=O)CN(C)C(=O)[C@@H]2CCN2C1=O` [Compound 71] (cyclo([Aze][Sar][NMePhe(4-Cl)][Sar][hPhe(4-CF3)][NMeL][NMeF][NMeV][d(β3hA)][NMeA]I)): greater than 500 nM; for `CC[C@H](C)[C@@H]1NC(=O)[C@H](CC(C)C)N(C)C(=O)C[C@@H](C)NC(=O)[C@H](C(C)C)N(C)C(=O)C2(CCCC2)NC(=O)[C@@H]2CCCN2C(=O)[C@H](CCc2ccc(C(F)(F)F)c(Cl)c2)NC(=O)CN(C)C(=O)[C@H](CC2CCC2)N(C)C(=O)CN(C)C(=O)CN(C)C1=O` [Compound 75] (cyclo([Ac5c][NMeV][d(β3hA)][NMeL]I[Sar][Sar][NMeCba][Sar][hPhe(3-Cl-4-CF3)]P)): greater than 500 nM.
`CC[C@H](C)[C@@H]1NC(=O)[C@H](CC(C)C)N(C)C(=O)C[C@@H](C)NC(=O)[C@H](C(C)C)N(C)C(=O)C2(CCCC2)NC(=O)[C@@H]2CCCN2C(=O)[C@H](CCc2ccc(C(F)(F)F)c(Cl)c2)NC(=O)[C@H]2CCCN2C(=O)[C@H](CC2CCCCC2)N(C)C(=O)CN(C)C(=O)CN(C)C1=O` [Compound 76] (cyclo([Ac5c][NMeV][d(β3hA)][NMeL]I[Sar][Sar][NMeCha][dP][hPhe(3-Cl-4-CF3)]P)): the IC50 was greater than 500 nM.
`CC(C)C[C@H]1C(=O)N[C@@H](CCCCC(F)F)C(=O)N(C)CC(=O)N(C)CC(=O)N(C)[C@@H](CC2CCCCC2)C(=O)N(C)CC(=O)N[C@@H](CCc2ccc(C(F)(F)F)c(Cl)c2)C(=O)N2CCC[C@H]2C(=O)NC2(CCCC2)C(=O)N(C)[C@@H](C2CCCCC2)C(=O)N(C)[C@H](C(=O)N2CCCCC2)CC(=O)N1C` [Compound 92] ([NMeL][hNle(7,7-F2)][Sar][Sar][NMeCha][Sar][hPhe(3-Cl-4-CF3)]P[Ac5c][NMeChg][NMeD]-Piperidide; lactam N-11): the IC50 is greater than 500 nM.
Regarding `CC[C@H](C)[C@@H]1NC(=O)[C@H](C)N(C)C(=O)C[C@@H](C)NC(=O)[C@H](C(C)C)N(C)C(=O)C(C)(C)N(C)C(=O)[C@@H]2CCCN2C(=O)[C@H](CCc2ccc(C(F)(F)F)c(Cl)c2)NC(=O)CN(C)C(=O)[C@H](CC2CCCCC2)N(C)C(=O)CN(C)C(=O)CN(C)C1=O` [Compound 93] (cyclo(I[Sar][Sar][NMeCha][Sar][hPhe(3-Cl-4-CF3)]P[NMeAib][NMeV][d(β3hA)][NMeA])), the IC50 was greater than 500 nM.
